In PubChem BioAssay (NCI):
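In this assay, cells in 96-well plates receive the compound at five concentrations for 48 hours. Endpoints are linearly interpolated between the surrounding concentrations. TGI is the concentration that stops growth completely.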

Columns and labels:
Assay in all cases: NCI-60 cell line screen, 48 h
[1] = system: 786-0 renal
[2] = system: ACHN renal
[3] = system: HOP-62 NSCLC
[4] = system: NCI/ADR-RES ovarian
[5] = system: UACC-257 melanoma
[6] = system: IGROV1 ovarian
[7] = system: MDA-MB-435
[8] = system: HOP-92 NSCLC
[9] = system: CCRF-CEM leukemia
[10] = system: OVCAR-5 ovarian
[11] = system: SW-620 colon
[12] = system: A549 NSCLC
[13] = system: OVCAR-4 ovarian
[14] = system: A498 renal
[15] = system: SR leukemia
[16] = system: MOLT-4 leukemia
[17] = system: SK-MEL-2 melanoma
[18] = system: SK-MEL-28 melanoma
[19] = system: M14 melanoma
[20] = system: T-47D breast
[21] = system: TK-10 renal
[22] = system: UO-31 renal
[23] = system: SF-539 CNS
[24] = system: SNB-75 CNS
[25] = system: SF-268 CNS
[26] = system: HT29 colon
[27] = system: NCI-H460 lung
[28] = system: MALME-3M melanoma
[29] = system: U251 CNS
[30] = system: EKVX NSCLC
[31] = system: HCT-116 colon
[32] = system: K-562 leukemia
[33] = system: BT-549 breast
[34] = system: UACC-62 melanoma
[35] = system: SN12C renal
[36] = system: NCI-H226 lung
[37] = system: KM12 colon
[38] = system: OVCAR-8 ovarian
[39] = system: PC-3 prostate
[40] = system: SK-MEL-5 melanoma
[41] = system: COLO 205 colon
[42] = system: HCC-2998 colon
[43] = system: RXF 393 renal
[44] = system: SF-295 CNS
[45] = system: SNB-19 CNS
[46] = system: OVCAR-3 ovarian
[47] = system: HL-60(TB) leukemia
[48] = system: HCT-15 colon
[49] = system: LOX IMVI melanoma
[50] = system: HS 578T breast
[51] = system: NCI-H522 lung
[52] = system: SK-OV-3 ovarian
[53] = system: DU-145 prostate
[54] = system: MDA-N
[55] = system: RPMI-8226 leukemia
[56] = system: MDA-MB-231 breast
[57] = system: NCI-H23 lung
[58] = system: MCF7 breast
[59] = system: CAKI-1 renal

Measured: TGI

N#Cc1c(N2CCCC2)ncn(Cc2ccccc2)c1=O
> 100 µM: [1] | [2] | [3] | [4] | [5] | [6] | [7] | [8] | [9] | [10] | [11] | [12] | [13] | [14] | [15] | [16] | [17] | [18] | [19] | [20] | [21] | [22] | [23] | [24] | [25] | [26] | [27] | [28] | [29] | [30] | [31] | [32] | [33] | [34] | [35] | [36] | [37] | [38] | [39] | [40] | [41] | [42] | [43] | [44] | [45] | [46] | [47] | [48] | [49] | [50] | [51] | [52] | [53] | [54] | [55]

Cc1cn(CC2=NCC(C)(C)N2)c(=O)[nH]c1=O
> 100 µM: [1] | [2] | [3] | [4] | [5] | [6] | [8] | [56] | [9] | [10] | [11] | [12] | [14] | [57] | [15] | [16] | [17] | [18] | [19] | [20] | [21] | [22] | [58] | [24] | [25] | [26] | [27] | [28] | [29] | [30] | [31] | [32] | [33] | [34] | [35] | [36] | [38] | [39] | [40] | [41] | [42] | [43] | [44] | [45] | [48] | [49] | [50] | [51] | [52] | [53] | [54] | [55]

CC(C)c1ccc(/C=C2\CSCC3=C2NC(=S)NC3c2ccc(C(C)C)cc2)cc1 (stereo unspecified)
99.5 µM: [40]
> 100 µM: [1] | [2] | [3] | [4] | [5] | [6] | [59] | [8] | [56] | [9] | [10] | [11] | [12] | [13] | [57] | [15] | [16] | [17] | [18] | [19] | [20] | [21] | [22] | [23] | [58] | [25] | [26] | [27] | [28] | [29] | [30] | [31] | [32] | [33] | [34] | [35] | [36] | [37] | [38] | [39] | [41] | [42] | [43] | [44] | [45] | [46] | [47] | [48] | [49] | [51] | [52] | [53] | [54] | [55]

COC(=O)/C=C1\CCC(C)(C(=O)NS(=O)(=O)c2ccc(C)cc2)C1(C)C (stereo unspecified)
> 100 µM: [1] | [2] | [3] | [4] | [5] | [6] | [7] | [59] | [8] | [56] | [9] | [10] | [11] | [12] | [13] | [14] | [57] | [16] | [17] | [19] | [20] | [21] | [22] | [23] | [58] | [25] | [27] | [28] | [29] | [30] | [31] | [32] | [33] | [34] | [35] | [36] | [37] | [38] | [39] | [40] | [41] | [42] | [43] | [44] | [45] | [46] | [47] | [48] | [49] | [51] | [52] | [53] | [54] | [55]
